Legend:
[1] = Example 14 safety: adverse events; details: Part 2
[2] = Safety and tolerability of IN nalmefene, adverse events (Example 13); assay type: in vivo, human (healthy volunteers)
Source text: Safety: The Investigator evaluated safety using the following assessments: reported or observed AEs, clinical laboratory evaluations, vital sign measurements, physical examinations, ECGs (including telemetry), nasal irritation determined from nasal passage examinations, and NRS to determine acute nasal pain.

[3] = Treatment B (6 mg, 1 spray in each nostril)
[4] = Treatment C (6 mg, 2 sprays in 1 nostril)

In the case of `C=C1CC[C@@]2(O)[C@H]3Cc4ccc(O)c5c4[C@@]2(CCN3CC2CC2)[C@H]1O5` [Nalmefene, 17-cyclopropylmethyl-4,5α-epoxy-6-methylenemorphinan-3,14-diol], the “Number of TEAEs” value [1] is reported as 172, the “Subjects reporting Grade 1 severity TEAEs” value [1] is reported as 68.9% and the “Subjects reporting Grade 2 severity TEAEs” value [1] is reported as 23.0%. For the same compound, the “Subjects reporting TEAEs” value [1] was 91.8%, the Subjects reporting headache [1] was 59.0% and the “Subjects who discontinued the study drug due to an AE” value [1] was 6.6%. The Tolerability ([2]; 3 mg and 6 mg dose, fasted healthy subjects) was “well-tolerated”, the “Nasal congestion, instances” value ([2]; Treatment A) was 1 and the “Nasal discomfort, instances” value ([2]; Treatment A) was 1. For the same compound, the “Nausea, instances” value ([2]; Treatment A) was 1, the “Number of AEs reported” value ([2]; Treatment A (3 mg)) was 20 and the “Subjects reporting AEs” value ([2]; Treatment A (3 mg)) was 43.5%. For the same compound, the “Nasal congestion, instances” value ([2]; Treatment B) was 2, the “Nausea, instances” value ([2]; Treatment B) was 5 and the “Number of AEs reported” value [2, 3] was 24. The “Subjects reporting AEs” value [2, 3] was 60.9%, the “Nasal congestion, instances” value ([2]; Treatment C) was 4 and the “Nasal discomfort, instances” value ([2]; Treatment C) was 3. The “Nausea, instances” value ([2]; Treatment C) was 1, the “Number of AEs reported” value [2, 4] was 24 and the “Subjects reporting AEs” value [2, 4] was 58.3%. The “Serious AEs or AEs leading to withdrawal or death” value ([2]; all treatments) was “no serious AEs” and the “Severity of TEAEs” value ([2]; all treatments) was “mild”.
